In US20110129542A1, “SUBSTITUTED AZEPINE- AND DIAZEPINE-SULFONAMIDES USEFUL TO INHIBIT 11BETA-HYDROXYSTEROID DEHYDROGENASE TYPE-1” (Schering Corporation, priority 2007, published 2011):

How the values were obtained:
Human 11-β-HSD1 = Human 11-β-HSD1 (Homo sapiens, UniProt P28845); assay: Measurement of 11β-HSD1 activity (SPA, 3H-cortisone, membrane), human enzyme; type: biochemical; details: 125 nM 3H-cortisone, 3 mM NADPH, 0.5 μg membrane, room temperature 1 hr
Procedure: (§1) Measurement of 11β-HSD1 activity
(§2) The reaction was incubated at room temperature for 1 hr before it was stopped by addition of […] containing 20 mM NaPO4 pH 7.5, 30 μM 18β-glycyrrhetinic acid, 1 μg/ml monoclonal anti-cortisol antibody (Biosource) and 2 mg/ml anti-mouse antibody coated scintillation proximity assay (SPA) beads (Amersham Bioscience). The mixture was incubated at room temperature for 2 hrs with vigorous shaking and analyzed on TopCount scintillation counter.

Mouse 11-β-HSD1 = Mouse 11-β-HSD1 (Mus musculus, UniProt P50172); assay: Measurement of 11β-HSD1 activity (SPA, 3H-cortisone, membrane), mouse enzyme; type: biochemical; details: 125 nM 3H-cortisone, 3 mM NADPH, 0.5 μg membrane, room temperature 1 hr
Mouse 11-β-HSD1, sequence (P50172 whole entry): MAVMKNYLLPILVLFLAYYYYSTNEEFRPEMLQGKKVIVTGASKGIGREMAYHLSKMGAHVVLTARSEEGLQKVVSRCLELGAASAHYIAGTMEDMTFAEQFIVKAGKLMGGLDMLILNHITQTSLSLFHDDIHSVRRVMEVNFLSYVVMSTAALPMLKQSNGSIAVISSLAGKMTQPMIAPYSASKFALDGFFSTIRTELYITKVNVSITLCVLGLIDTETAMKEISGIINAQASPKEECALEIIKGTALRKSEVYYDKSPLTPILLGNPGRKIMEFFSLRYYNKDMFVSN
Procedure: as §1, §2

Human 11-β-HSD1, sequence (P28845 whole entry): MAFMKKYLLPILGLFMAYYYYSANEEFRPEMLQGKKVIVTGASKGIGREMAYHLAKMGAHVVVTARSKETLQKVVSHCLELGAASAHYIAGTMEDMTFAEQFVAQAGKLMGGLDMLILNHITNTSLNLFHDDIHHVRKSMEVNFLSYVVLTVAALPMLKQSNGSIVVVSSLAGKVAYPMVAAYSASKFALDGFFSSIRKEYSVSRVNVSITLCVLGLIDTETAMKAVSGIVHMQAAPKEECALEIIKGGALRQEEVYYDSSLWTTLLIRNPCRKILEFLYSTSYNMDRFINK

Row | SMILES | IC50 (Human 11-β-HSD1) | IC50 (Mouse 11-β-HSD1)
1 | COc1ccc(S(=O)(=O)N2CCCC(O)(c3ccccc3)CC2)cc1 (centres unmarked) [Compound 1] | 1320 nM | 1980 nM
2 | O=S(=O)(c1ccc(Cl)cc1)N1CCCC(O)(c2ccccc2)CC1 (centres unmarked) [Compound 6] | 1070 nM | 2720 nM
3 | CC(C)(C)c1ccc(S(=O)(=O)N2CCCC(O)CC2)cc1 (centres unmarked) [Compound 11] | 466 nM | 629 nM
4 | COC1CCCN(S(=O)(=O)c2ccc(C(C)(C)C)cc2)CC1 (centres unmarked) [Compound 12] | 7 nM | 165 nM
5 | COC1(C)CCCN(S(=O)(=O)c2ccc(C(C)(C)C)cc2)CC1 (centres unmarked) [Compound 18] | 3 nM | 57 nM
6 | CC(=O)c1ccc(S(=O)(=O)N2CCCC(C)(O)CC2)cc1 (centres unmarked) [Compound 29] | 5250 nM | > 10000 nM
7 | COc1ccc(S(=O)(=O)N2CCC=C(c3ccccc3)CC2)cc1 [Compound 34] | 58 nM | 1880 nM
8 | COc1ccc(S(=O)(=O)N2CC=C(c3ccccc3)CCC2)cc1 [Compound 40] | 178 nM | 1550 nM
9 | CC(C)(C)c1ccc(S(=O)(=O)N2CCCN(C3CCCC3)CC2)cc1 [Compound 43] | 30 nM | 263 nM
10 | CC(=O)N1CCCN(S(=O)(=O)c2ccc(C(C)(C)C)cc2)CC1 [Compound 44] | 254 nM | 2540 nM
11 | CC(C)(C)c1ccc(S(=O)(=O)N2CCCNCC2)cc1 [Compound 45] | 3740 nM | 2300 nM
12 | CC(C)(C)OC(=O)N1CCCN(S(=O)(=O)c2ccc(C(C)(C)C)cc2)CC1 [Compound 46] | 256 nM | 2760 nM
13 | CC(C)(C)c1ccc(S(=O)(=O)N2CCCN(C3CC4CCC3C4)CC2)cc1 (centres unmarked) [Compound 47] | 19 nM | 102 nM
